Measurements published in ChEMBL document CHEMBL1128013, “The synthesis and biological activity of tetrahydroquinoline angiotensin II antagonists containing a substituted biphenyltetrazole group” (Bioorg Med Chem Lett, 1994).

Columns and labels:
[1] = target: T1, Type-1 angiotensin II receptor (Cavia porcellus, UniProt Q9WV26); test: Compound was tested for in vitro inhibition of specific binding of [I-125]AII to Angiotensin II receptor, type 1 in guinea pig adrenal membrane preparation; type: cell membranes
T1 sequence (Q9WV26 whole entry): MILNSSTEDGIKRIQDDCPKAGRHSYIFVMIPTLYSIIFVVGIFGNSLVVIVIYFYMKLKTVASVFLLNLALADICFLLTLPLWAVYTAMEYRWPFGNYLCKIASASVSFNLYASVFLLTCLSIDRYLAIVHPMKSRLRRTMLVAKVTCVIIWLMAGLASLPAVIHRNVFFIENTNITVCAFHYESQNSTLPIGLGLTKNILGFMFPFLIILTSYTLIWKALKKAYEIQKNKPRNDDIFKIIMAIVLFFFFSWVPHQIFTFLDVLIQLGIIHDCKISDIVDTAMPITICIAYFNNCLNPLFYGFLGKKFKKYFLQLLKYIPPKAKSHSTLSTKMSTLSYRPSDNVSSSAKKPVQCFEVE

Rattus norvegicus = test: Tested in vivo for inhibition of pressor response induced by infusion of AII in conscious normotensive rats, when given intravenously; type: functional, organism-based
[2] = target: T1, Type-1 angiotensin II receptor; test: Compound was tested for in vitro inhibition of specific binding of [I-125]AII to AT1 receptor in guinea pig adrenal membrane preparation; type: cell membranes

**Q.** For CCc1cc(OCc2ccc(-c3c(C)cccc3-c3nn[nH]n3)cc2)c2c(n1)CCCC2, which IC50 [1] is on record?
**A.** Its IC50 is 29 nM.

**Q.** And the EC50 (Rattus norvegicus)?
**A.** The EC50 was 0.48 mg/kg.

**Q.** Which IC50 [2] does the source give for CCc1cc(OCc2ccc(-c3ccccc3-c3nn[nH]n3)c(C(=O)O)c2)c2c(n1)CCCC2 here?
**A.** Its IC50 is 27 nM.

**Q.** What about the EC50 (Rattus norvegicus) of the same compound?
**A.** Its EC50 is 0.24 mg/kg.

**Q.** CCc1cc(OCc2ccc(-c3ccccc3-c3nn[nH]n3)c(OC)c2)c2c(n1)CCCC2 was tested. Which IC50 [2] did it give?
**A.** The IC50 was 8 nM.

**Q.** And the EC50 (Rattus norvegicus)?
**A.** Its EC50 is 0.39 mg/kg.

**Q.** Which IC50 [2] does the source give for CCc1cc(OCc2ccc(-c3ccccc3-c3nn[nH]n3)c(Cl)c2)c2c(n1)CCCC2 here?
**A.** Its IC50 is 7 nM.

**Q.** What about the EC50 (Rattus norvegicus) of the same compound?
**A.** Its EC50 is 0.52 mg/kg.

**Q.** For CCc1cc(OCc2ccc(-c3ccc(OC)cc3-c3nnn[nH]3)cc2)c2c(n1)CCCC2, which IC50 [1] is on record?
**A.** Its IC50 is 140 nM.

**Q.** For CCc1cc(OCc2ccc(-c3ccccc3-c3nn[nH]n3)c(C(C)=O)c2)c2c(n1)CCCC2, which IC50 [2] is on record?
**A.** The IC50 was 6 nM.

**Q.** What about the EC50 (Rattus norvegicus) of the same compound?
**A.** Its EC50 is 0.1 mg/kg.

**Q.** With CCc1cc(OCc2ccc(-c3ccc(Cl)cc3-c3nnn[nH]3)cc2)c2c(n1)CCCC2 as the compound, how does the IC50 [1] read?
**A.** Its IC50 is 93 nM.

**Q.** Which results are given for CCc1cc(OCc2ccc(-c3ccccc3-c3nn[nH]n3)cc2)c2c(n1)CCCC2?
**A.** IC50 [1]: 5 nM; EC50 (Rattus norvegicus): 0.39 mg/kg

**Q.** Which results are given for CCc1cc(OCc2ccc(-c3ccccc3-c3nn[nH]n3)c(C(=O)OC)c2)c2c(n1)CCCC2?
**A.** IC50 [2]: 20 nM; EC50 (Rattus norvegicus): 0.11 mg/kg

**Q.** For CCCCc1nc(Cl)c(CO)n1Cc1ccc(-c2ccccc2-c2nnn[nH]2)cc1 [LOSARTAN], which EC50 (Rattus norvegicus) is on record?
**A.** The EC50 was 0.65 mg/kg.

**Q.** CCc1cc(OCc2ccc(-c3ccc(C)cc3-c3nn[nH]n3)cc2)c2c(n1)CCCC2 was tested. Which IC50 [1] did it give?
**A.** Its IC50 is 54 nM.

**Q.** Which IC50 [1] does the source give for CCc1cc(OCc2ccc(-c3cc(OC)ccc3-c3nn[nH]n3)cc2)c2c(n1)CCCC2 here?
**A.** The IC50 was 67 nM.

**Q.** For CCc1cc(OCc2ccc(-c3ccccc3-c3nn[nH]n3)cc2F)c2c(n1)CCCC2, which IC50 [1] is on record?
**A.** Its IC50 is 9 nM.

**Q.** What about the EC50 (Rattus norvegicus) of the same compound?
**A.** Its EC50 is 0.22 mg/kg.
